According to ChEMBL document CHEMBL5365532, “Discovery of Triazinone Derivatives as Novel, Specific, and Direct NLRP3 Inflammasome Inhibitors for the Treatment of DSS-Induced Ulcerative Colitis” (J Med Chem, 2023):
Calls of active or inactive are those of the source. The rule behind the calls is not given here.

Molecular target: NACHT, LRR and PYD domains-containing protein 3 (Homo sapiens, UniProt Q96P20)
Experiment: Inhibition of NLRP3 inflammasome in PMA-differentiated human THP-1 cells assessed as inhibition of LPS/nigericin-induced IL-1 beta secretion pretreated with LPS for 3 hrs followed by incubation with compound for 40 mins and later stimulated with nigericin for 35 mins by ELISA
Assay type: cell-based
Conditions: not given

Chain of NACHT, LRR and PYD domains-containing protein 3 (Q96P20 whole entry, the tested form may be a part): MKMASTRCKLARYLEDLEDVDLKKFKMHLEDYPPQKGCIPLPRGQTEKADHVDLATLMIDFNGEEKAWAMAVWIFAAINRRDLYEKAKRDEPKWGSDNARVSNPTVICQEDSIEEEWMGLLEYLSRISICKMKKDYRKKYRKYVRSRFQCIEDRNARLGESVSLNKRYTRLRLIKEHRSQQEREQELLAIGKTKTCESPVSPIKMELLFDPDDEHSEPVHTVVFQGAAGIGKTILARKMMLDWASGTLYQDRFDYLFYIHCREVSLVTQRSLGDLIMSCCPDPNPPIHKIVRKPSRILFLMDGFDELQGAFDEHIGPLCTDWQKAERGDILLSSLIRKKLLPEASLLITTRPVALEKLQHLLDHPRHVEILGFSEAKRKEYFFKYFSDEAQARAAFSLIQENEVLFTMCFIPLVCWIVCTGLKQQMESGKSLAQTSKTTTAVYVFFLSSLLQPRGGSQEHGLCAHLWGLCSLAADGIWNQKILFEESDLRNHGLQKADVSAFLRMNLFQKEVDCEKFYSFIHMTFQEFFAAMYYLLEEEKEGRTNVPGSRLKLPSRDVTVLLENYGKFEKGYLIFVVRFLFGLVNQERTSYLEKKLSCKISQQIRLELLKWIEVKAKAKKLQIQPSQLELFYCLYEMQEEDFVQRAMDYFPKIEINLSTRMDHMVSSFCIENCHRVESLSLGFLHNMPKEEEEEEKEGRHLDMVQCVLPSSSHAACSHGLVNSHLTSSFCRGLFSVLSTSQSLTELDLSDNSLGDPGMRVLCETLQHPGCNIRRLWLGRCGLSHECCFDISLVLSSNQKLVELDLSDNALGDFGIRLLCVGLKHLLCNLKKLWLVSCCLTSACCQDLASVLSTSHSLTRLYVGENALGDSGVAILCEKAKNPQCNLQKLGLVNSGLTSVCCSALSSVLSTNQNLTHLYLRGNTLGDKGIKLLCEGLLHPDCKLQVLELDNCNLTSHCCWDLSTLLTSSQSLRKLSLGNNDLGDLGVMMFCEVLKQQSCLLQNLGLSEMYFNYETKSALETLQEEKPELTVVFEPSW

Row | SMILES | IC50
1 | O=C(CN1CCn2c(cc3sccc32)C1=O)NC1CCOCC1 | > 10 µM
2 | CC(C)c1nn(Cc2nnc(-c3cccnc3)o2)c(=O)c2cc3sc(Cl)cc3n12 | 1.89 µM
3 | CC(C)c1nn(CC(=O)NC2CCOCC2)c(=O)c2cc(Nc3ccccc3)cn12 | > 10 µM
4 | Cc1cccc(-c2nnc(Cn3nc(C(C)C)n4c(cc5sc(Cl)cc54)c3=O)o2)c1 | > 10 µM
5 | CC(C)c1nn(CC(=O)NC2CCOCC2)c(=O)c2cccn12 | > 10 µM
6 | CC(C)c1nn(Cc2nnc(-c3cnccn3)o2)c(=O)c2cc3sc(Cl)cc3n12 | 2.24 µM
7 | CC(C)c1nn(CC(=O)NC2CCOCC2)c(=O)c2cc(NC3COC3)cn12 | > 10 µM
8 | CC(C)c1nn(Cc2nnc(-c3cccnc3)[nH]2)c(=O)c2cc3sc(Cl)cc3n12 | > 10 µM
9 | CC(C)c1nn(CC(=O)NC2CCOCC2)c(=O)c2cc3ccccc3n12 | > 10 µM
10 | CC(C)c1nn(Cc2nnc(-c3ccncn3)o2)c(=O)c2cc3sc(Cl)cc3n12 | 1.24 µM
11 | CC(C)c1nn(CC(=O)NC2CCOCC2)c(=O)c2ccc(-c3ccc(Cl)s3)n12 | > 10 µM
12 | CC(C)c1nn([C@@H](C)c2nnc(-c3ccc(C(F)(F)F)nc3Cl)o2)c(=O)c2cc3sc(Cl)cc3n12 | > 10 µM
13 | CC(C)c1nn(Cc2nnc(C3CCOCC3)o2)c(=O)c2cc3sccc3n12 | > 10 µM
14 | CC(C)c1nn(Cc2nnc(C3CCCCC3)o2)c(=O)c2cc3sc(Cl)cc3n12 | 1.9 µM
15 | CC(C)c1nn(CC(=O)NC2CCOCC2)c(=O)c2ccc(-c3ccsc3)n12 | > 10 µM
16 | CC(C)c1nn(Cc2nnc(-c3cc(C(F)(F)F)cnc3Cl)o2)c(=O)c2cc3sc(Cl)cc3n12 | 1.77 µM
17 | CC(C)c1nn(CC(=O)NC2CCOCC2)c(=O)c2cc3cc(Cl)ccc3n12 | > 10 µM
18 | CC(C)c1nn(Cc2nnc(C3CCOCC3)o2)c(=O)c2cc3sc(Cl)cc3n12 | 2.41 µM
19 | CC(C)c1nn(Cc2nnc(-c3cccc(C#N)c3)o2)c(=O)c2cc3sc(Cl)cc3n12 | 0.38 µM
20 | COc1cccc(-c2nnc(Cn3nc(C(C)C)n4c(cc5sc(Cl)cc54)c3=O)o2)c1 | > 10 µM
21 | CC(C)c1nn([C@H](C)c2nnc(-c3ccc(C(F)(F)F)nc3Cl)o2)c(=O)c2cc3sc(Cl)cc3n12 | > 10 µM
22 | O=C(CNC(=O)c1cc2sccc2[nH]1)NC1CCOCC1 | > 10 µM

System: not listed separately
Experiment: Metabolic stability in human liver microsomes
Assay type: ADME, Microsome
Conditions: not given

Row | SMILES | half-life
23 | CC(C)c1nn(Cc2nnc(-c3ccc(F)nc3F)o2)c(=O)c2cc3sc(Cl)cc3n12 | 8.86 min
24 | CC(C)c1nn(Cc2nnc(-c3cc(F)cnc3Cl)o2)c(=O)c2cc3sc(Cl)cc3n12 | 7.66 min
25 | [2H]C([2H])(c1nnc(-c2ccc(C(F)(F)F)nc2Cl)o1)n1nc(C(C)C)n2c(cc3sc(Cl)cc32)c1=O | 25.1 min
26 | Cc1ccc(-c2nnc(Cn3nc(C(C)C)n4c(cc5sc(Cl)cc54)c3=O)o2)c(Cl)n1 | 15.2 min
27 | CC(C)c1nn([C@H](C)c2nnc(-c3ccc(C(F)(F)F)nc3Cl)o2)c(=O)c2cc3sc(Cl)cc3n12 | 59.2 min
28 | CC(C)c1nn(CC(=O)NC2CCOCC2)c(=O)c2cc3sc(Cl)cc3n12 | 18.7 min

System: THP-1
Experiment: Effect on pro-IL-1beta protein expression in PMA-differentiated human THP-1 cells at 0.5 uM pretreated with compound for 40 mins followed by LPS challenge for 3 hrs by western blot analysis
Assay type: functional, cell-based
Conditions: time 220.0 min

Row | SMILES | Activity
29 | CC(C)(O)c1coc(S(=O)(=O)NC(=O)Nc2c3c(cc4c2CCC4)CCC3)c1 | inactive

System: THP-1
Experiment: Effect on NLRP3 protein expression in PMA-differentiated human THP-1 cells at 0.5 uM pretreated with compound for 40 mins followed by LPS challenge for 3 hrs by western blot analysis
Assay type: functional, cell-based
Conditions: time 220.0 min

Row | SMILES | Activity
30 | CC(C)(O)c1coc(S(=O)(=O)NC(=O)Nc2c3c(cc4c2CCC4)CCC3)c1 | inactive

System: Mus musculus
Experiment: Antiinflammatory activity against DSS-induced ulcerative colitis C57BL/6 mouse model assessed as decrease in disease activity index at 30 mg/kg, ip fed with DSS for 6 days followed by administration with compound for 5 days
Assay type: functional, organism-based
Conditions: time 5.0 day

Row | SMILES | Activity
31 | CC(C)c1nn(CC(=O)NC2CCOCC2)c(=O)c2cc3sc(Cl)cc3n12 | Active

System: Mus musculus
Experiment: Antiinflammatory activity against DSS-induced ulcerative colitis C57BL/6 mouse model assessed as decrease in colon length shortening at 30 mg/kg, ip fed with DSS for 6 days followed by administration with compound for 5 days and measured on day 11
Assay type: functional, organism-based
Conditions: time 5.0 day

Row | SMILES | Activity
32 | CC(C)c1nn(CC(=O)NC2CCOCC2)c(=O)c2cc3sc(Cl)cc3n12 | Active
